Experiments:
leukemic spleens = assay: Apoptosis in leukemic spleens after in vivo treatment (TUNEL assay); design: species or system mice; details: VPA 400 mg/kg every 12 hours, 48 hours; FIG. 3A
Method: FIG. 3: (A) Secondary acute promyelocytic leukemias were induced in mice as described above. Leukemic mice were then treated with placebo (Ctrl), or VPA (400 mg/kg every 12 hours). Mice were sacrificed 48 hours after beginning of treatments, and then leukemic spleens were fixed and either stained for histological examination (hematoxylin-eosyn, left panels), or analyzed for the presence of apoptotic cells (TUNEL assay, right panels). (B) Secondary leukemias were obtained as above. Mice were sacrificed when leukemic invasion of peripheral organs was >75% (spleen). Splenocytes from healthy mice (taken as control, left panel), or from leukemic mice (>75% blasts, right panel) were put in culture and then treated with VPA (1 mM) for 48 hours. At the end of the treatment, apoptosis was measured by propidium iodide staining. The sub-G1 area indicates the hypodiploid DNA peak corresponding to cells with fragmented DNA undergoing apoptosis.

TRAIL = TRAIL expression in Calu-3 cells (quantitative PCR); type: cell-based, human; details: VPA 1 mM, FIG. 4B
Method: FIG. 4: (A) Secondary acute promyelocytic leukemias were induced in mice as described above. Leukemic mice or healthy mice (Ctrl) were then treated with placebo (lanes 1, 3), VPA (400 mg/kg every 12 hours), all-trans retinoic acid (a 21-day-release pellet containing 5 mg RA or placebo: lanes 8-9), and VPA plus retinoic acid (lanes 10-11). Mice were sacrificed 18 hours (lanes 4-5), or 36 hours after beginning of treatment (lanes 3, 6-7, 10-11): total RNAs were collected from the spleens (with a >75% invasion of leukemic blasts as assessed by Giemsa staining) and analyzed by RNAse protection assay to check for expression of TRAIL. Faf and GAPDH were used as controls, not affected by these treatments. (B) Calu-3 cells (a human, non-small cell lung cancer derived cell line) were treated with VPA (1 mM) for the indicated times. RNA was extracted and analyzed by quantitative PCR (Perkin-Elmer), using primers specific for TRAIL. GAPDH was used to normalize.

HDAC-2 [1] = assay: HDAC-2 protein levels in F9 teratocarcinoma cells (Westernblot); type: cell-based, murine
Method: (§1) FIG. 6: (A) F9 teratocarcinoma or HEK293T embryonic kidney cells were exposed for indicated times to 1 mM VPA. Protein levels of HDAC-2 and HDACs 1 or 3 for reference (HDAC8; N-CoR and Sin3 as data not shown) were determined by Westernblot analysis. […] (C) The effect of other HDAC inhibitors on the amount of HDAC-2 protein was determined by using TSA (100 nM) in a time course analysis in F9 cells (left panel). The HDAC inhibitors TSA (100 nM), trapoxin (TPX, 10 nM), butyrate (1.5 mM) or MS275 (5 μM) were tested at a single time of exposure in HEK293T cells (right panel).

HDAC-3 [2] = assay: HDAC-3 protein levels (Westernblot, reference); type: cell-based; details: 1 mM VPA; FIG. 6A; in some experiments a transient induction
Method: as §1

HDAC-3 [3] = assay: HDAC-3 pulse-chase analysis in HEK293T cells; type: cell-based, human; details: VPA pretreatment, FIG. 8B
Method: FIG. 8: Synthesis and degradation rate of HDAC-2 were analyzed by pulse metabolic labeling with ^35S-methionine and pulse-chase analyses. ^35S-labelled HDAC-2 was detected by HDAC-2 specific immune precipitation followed by SDS-PAGE separation and autoradiography. (A) Pulse labeling for 1 h was performed in F9 and HEK293T cells which had been left untreated or were pretreated with 1 mM VPA for 24 h. (B) For pulse chase analysis cells were left untreated or pretreated for 24 h with 1 mM VPA and labeled with ^35S-methionine for an additional hour in the absence or presence of VPA. After removal of ^35S-methionine and addition of non-labeled methionine the elimination of radiolabeled HDAC-2 was followed over a period of 6 h. A pulse chase analysis was also performed in HEK293T cells without VPA pretreatment and addition of VPA (indicated by the (+) row) only at the time when the chase period was started. From HEK293T cell extracts also HDAC-3 was precipitated for reference.

HDAC-2 [4] = assay: Ubiquitinated proteins in anti HDAC-2 immune precipitates (Westernblot against ubiquitin); type: cell-based; details: FIG. 10A
Source text: FIG. 10: (A) The total amount of high molecular weight poly-ubiquitinated protein was not altered by VPA treatment of cells (left two lanes). The presence of ubiquitinated proteins in anti HDAC-2 immune precipitates is shown in the right part of the panel. […] Ubiquitinated proteins in the precipitates were detected by Western blot analysis. For lane N a non-immune serum was used instead of the anti HDAC-2 antibody. (B) The presence of mono- and/or oligo-ubiquitinated HDAC-2 upon VPA treatment of HEK293T cells was determined by ectopic expression of His6-tagged ubiquitin followed by VPA-treatment for 36 h as indicated. The proteasome inhibitor MG-132 was added 4 h prior to analysis to enhance the accumulation of ubiquitinated proteins. Electrophoretic mobility and unaltered presence of non-ubiquitinated HDAC-2 were determined by Westernblot analysis of whole cell extracts (left panel). […] Anti-HDAC-2 immuno-reactive bands with the expected mobility of mono- or poly-ubiquitinated HDAC-2 are indicated by a bracket.

HDAC-2 [5] = assay: Ubiquitinated HDAC-2 by His6-tagged ubiquitin / Ni2+-NTA agarose precipitation in HEK293T cells; type: cell-based, human; details: VPA 36 h, FIG. 10B
Method: FIG. 10: (A) The total amount of high molecular weight poly-ubiquitinated protein was not altered by VPA treatment of cells (left two lanes). The presence of ubiquitinated proteins in anti HDAC-2 immune precipitates is shown in the right part of the panel. Cells had either been left untreated, were exposed to VPA (1.5 mM, 24 h) or the proteasome inhibitor ALLN (5 μM, 24 h) or both. Ubiquitinated proteins in the precipitates were detected by Western blot analysis. For lane N a non-immune serum was used instead of the anti HDAC-2 antibody. (B) The presence of mono- and/or oligo-ubiquitinated HDAC-2 upon VPA treatment of HEK293T cells was determined by ectopic expression of His6-tagged ubiquitin followed by VPA-treatment for 36 h as indicated. The proteasome inhibitor MG-132 was added 4 h prior to analysis to enhance the accumulation of ubiquitinated proteins. Electrophoretic mobility and unaltered presence of non-ubiquitinated HDAC-2 were determined by Westernblot analysis of whole cell extracts (left panel). Ubiquitinated proteins were precipitated with Ni^2+-NTA-agarose and analyzed for presence of ubiquitinated HDAC-2 (middle panel) by Westernblot analysis of precipitates. Anti-HDAC-2 immuno-reactive bands with the expected mobility of mono- or poly-ubiquitinated HDAC-2 are indicated by a bracket.

CCCC(CCC)C(=O)O [VPA, Valproic acid]
apoptotic cells in leukemic spleens (TUNEL) (leukemic spleens): induces massive apoptosis within leukemic spleens
TRAIL expression (quantitative PCR, normalized to GAPDH) (TRAIL): strongly induced
HDAC-2 protein levels relative to untreated cells (HDAC-2 [1]; 1 mM VPA, 24 h, persists up to 48 h, FIG. 6A (F9 and HEK293T, cell line not given)): about 30%
HDAC-2 protein levels (HDAC-2 [1]; F9 cells, VPA 1 mM, TSA 100 nM up to 48 h): reduced
HDAC-3 protein levels (HDAC-3 [2]): not reduced
degradation of HDAC-3 (pulse-chase) (HDAC-3 [3]): not affected
amount of ubiquitinated protein precipitated with antibody against HDAC-2 (HDAC-2 [4]; VPA 1.5 mM, 24 h, ALLN 5 μM): increase the amount of this anti-ubiquitin reactive protein
overall amount of cellular ubiquitinated proteins (HDAC-2 [4]; VPA treatment): moderately reduced
gross abundance of ubiquitinated proteins (anti His-tag) (HDAC-2 [5]): not altered
oligo- and polyubiquitinated HDAC-2 bands in Ni2+-NTA-agarose precipitates (HDAC-2 [5]; MG-132 added 4 h prior to analysis): much more abundant

— US20130231472A1, “USE OF MOLECULAR MARKERS FOR THE PRECLINICAL PROFILING OF INHIBITORS OF ENZYMES HAVING HISTONE DEACETYLASE ACTIVITY” (priority 2002, published 2013)
